The test has as its system human liver cancer-derived cell line Hep3B. Kind of test: In vitro erythropoietin (EPO) induction activity in Hep3B cells (human EPO ELISA of culture supernatant). In kind it is cell-based. As to conditions: test compound 12.5 μM, Hep3B cells cultured 24 hours at 37° C., multiple of the EPO concentration in the control (0.5% DMSO = 1). How it is done: In vitro erythropoietin (EPO) induction activity of test compounds was evaluated using human liver cancer-derived cell line Hep3B (ATCC, Manassas, Va.). Hep3B cells were cultured overnight at 37° C. in Dulbecco's modified Eagle's medium (DMEM) in the presence of 10% fetal bovine serum (FBS) (24-well plate, 1.0×10^5 cells/well). After replacing with fresh DMEM (+10% FBS) containing a test compound dissolved in 0.5% dimethyl sulfoxide (DMSO) (prepared to a concentration of 12.5 μM) or a solvent control (0.5% DMSO), the cells were cultured for 24 hours at 37° C. After recovering the culture supernatant, EPO concentration in the culture supernatant was quantified using a human EPO ELISA kit (StemCell Technologies).
The EPO concentration in the case of using a compound of each example as a test compound was expressed as a multiple of the EPO concentration in the control.
With `Cc1cc(-c2ccc(N3CCC(Cc4nc(C)c(O)c(C(=O)NCC(=O)O)n4)CC3)cc2)ccc1CO` [Example 40, ({[5-Hydroxy-2-({1-[4′-(hydroxymethyl)-3′-methylbiphenyl-4-yl]piperidin-4-yl}methyl)-6-methylpyrimidin-4-yl]carbonyl}amino)acetic acid], the fold induction – broadly, the signal under treatment as a multiple of the control signal – at 12.5 µM is 25.

`Cc1nc(CC2CCN(c3ccc(-c4cc(F)c(CO)c(F)c4)cc3)CC2)nc(C(=O)NCC(=O)O)c1O` [Example 41, ({[2-({1-[3′,5′-Difluoro-4′-(hydroxymethyl)biphenyl-4-yl]piperidin-4-yl}methyl)-5-hydroxy-6-methylpyrimidin-4-yl]carbonyl}amino)acetic acid] showed a fold induction at 12.5 µM of 20.

Consider `Cc1nc(CC2CCN(c3ccc(-c4cc(Cl)c(CO)c(Cl)c4)cc3)CC2)nc(C(=O)NCC(=O)O)c1O` [Example 42, ({[2-{(1-[3′,5′-Dichloro-4′-(hydroxymethyl)biphenyl-4-yl]piperidin-4-yl}methyl)-5-hydroxy-6-methylpyrimidin-4-yl]carbonyl}amino)acetic acid], for which the fold induction at 12.5 µM was determined as 28.

For the molecule `[2H]C([2H])(O)c1ccc(-c2ccc(N3CCC(Cc4nc(C)c(O)c(C(=O)NCC(=O)O)n4)CC3)cc2)cc1` [Example 44, ({[5-Hydroxy-2-{(1-[4′-(hydroxymethyl)biphenyl-4-yl]piperidin-4-yl}methyl)-6-methylpyrimidin-4-yl]carbonyl}amino)acetic acid-d2], the fold induction at 12.5 µM was determined as 26.

Molecule `Cc1nc(CC2CCN(c3ccc(-c4ccc(C[C@H](C)O)cc4)cc3)CC2)nc(C(=O)NCC(=O)O)c1O` [Example 45, [({5-Hydroxy-2-[(1-{4′-[(2S)-2-hydroxypropyl]biphenyl-4-yl}piperidin-4-yl)methyl]-6-methylpyrimidin-4-yl}carbonyl)amino]acetic acid] had a fold induction at 12.5 µM of 41.

As for `Cc1nc(CC2CCN(c3ccc(-c4ccc(C[C@@H](C)O)cc4)cc3)CC2)nc(C(=O)NCC(=O)O)c1O` [Example 46, [({5-Hydroxy-2-[(1-{4′-[(2R)-2-hydroxypropyl]biphenyl-4-yl}piperidin-4-yl)methyl]-6-methylpyrimidin-4-yl}carbonyl)amino]acetic acid], the fold induction at 12.5 µM amounted to 45.

Molecule `CC[C@H](O)Cc1ccc(-c2ccc(N3CCC(Cc4nc(C)c(O)c(C(=O)NCC(=O)O)n4)CC3)cc2)cc1` [Example 47, [({5-Hydroxy-2-[(1-{4′-[(2S)-2-hydroxybutyl]biphenyl-4-yl}piperidin-4-yl)methyl]-6-methylpyrimidin-4-yl}carbonyl)amino]acetic acid] yielded a fold induction at 12.5 µM of 34.

Molecule `CC[C@@H](O)Cc1ccc(-c2ccc(N3CCC(Cc4nc(C)c(O)c(C(=O)NCC(=O)O)n4)CC3)cc2)cc1` [Example 48, [({5-Hydroxy-2-[(1-{4′-[(2R)-2-hydroxybutyl]biphenyl-4-yl}piperidin-4-yl)methyl]-6-methylpyrimidin-4-yl}carbonyl)amino]acetic acid] displayed a fold induction at 12.5 µM of 42.

`COC[C@H](O)Cc1ccc(-c2ccc(N3CCC(Cc4nc(C)c(O)c(C(=O)NCC(=O)O)n4)CC3)cc2)cc1` [Example 49, [({5-Hydroxy-2-[(1-{4′-[(2R)-2-hydroxy-3-methoxypropyl]biphenyl-4-yl}piperidin-4-yl)methyl]-6-methylpyrimidin-4-yl}carbonyl)amino]acetic acid] showed a fold induction at 12.5 µM of 18.

Molecule `COC[C@@H](O)Cc1ccc(-c2ccc(N3CCC(Cc4nc(C)c(O)c(C(=O)NCC(=O)O)n4)CC3)cc2)cc1` [Example 50, [({5-Hydroxy-2-[(1-{4′-[(2S)-2-hydroxy-3-methoxypropyl]biphenyl-4-yl}piperidin-4-yl)methyl]-6-methylpyrimidin-4-yl}carbonyl)amino]acetic acid] yielded a fold induction at 12.5 µM of 23.

For the origin of these results see patent US8785462B2, “5-hydroxypyrimidine-4-carboxamide derivative” (Daiichi Sankyo Company, Limited, priority 2009, dated 2014).
